{"source": "patent US20260167629A1", "about": "“NOVEL INDAZOLE DERIVATIVE OR PHARMACEUTICALLY ACCEPTABLE SALT THEREOF, AND USE THEREOF” (KOREA UNIVERSITY RESEARCH AND BUSINESS FOUNDATION, priority 2022, published 2026)", "key": {"[1]": {"system": "JIMT-1 breast cancer cell line xenograft", "experiment": "Tumor growth in JIMT-1 xenograft mouse model, combination with paclitaxel", "format": "in vivo, Balb/c nude mice", "method": "This experiment was performed in an in vivo environment using a xenograft mouse model transplanted with the JIMT-1 breast cancer cell line.\n6-week-old mice (Balb/c nude mice) were purchased and raised in an environment where they could freely access food and water. The mice were acclimated for more than 7 days, and then were transplanted with tumor cells. Tumor cells were injected subcutaneously into the mammary gland tissue of JIMT-1 breast cancer cells at a density of 3×10^6 cells/mL per individual, and when the tumor reached a size of 50 to 100 mm^3, the indazole derivative of the present disclosure was administered intraperitoneally, and the tumor growth was measured."}, "[2]": {"system": "non-small cell lung cancer cell line NCI-H1299", "experiment": "MTS cell viability assay in NCI-H1299", "format": "cell-based", "settings": "NCI-H1299, 0.1-20 μM, 72 hours", "method": "(§1) Specifically, cells were attached to 96 well plates for 24 hours, and then treated with the indazole derivatives for 72 hours. Thereafter, the cells were chromogenized with MTS for 4 hours, and the absorbance was measured at 490 nm using a Spectramax Plus384 microplate analyzer. The significance between the control group and the experimental group was verified using an unpaired Students t-test (*p<0.01; DMSO control vs indazole series).\n(§2) In addition to the breast cancer cell line, a leukemia cell line HL-60, a liver cancer cell line HepG2, a colorectal cancer cell line HCT116, a prostate cancer cell line Du145, an ovarian cancer cell line SKOV3, and non-small cell lung cancer cell lines NCI-H1299 and A549 were treated with compound 11k (formula 1-7) at concentrations of 0 (DMSO), 0.1, 0.5, 1, 2, 5, 10, and 20 μM, respectively, for 72 hours, and then cell viability was measured using the MTS assay technique as explained by the description of Experimental Example 1. The significance between the control group and the experimental group was verified using an unpaired Students t-test (*p<0.01; DMSO control vs compound 11k)."}, "[3]": {"system": "non-small cell lung cancer cell line A549", "experiment": "MTS cell viability assay in A549", "format": "cell-based", "settings": "A549, 0.1-20 μM, 72 hours", "method": "as §1, §2"}, "leukemia cell line HL-60": {"system": "leukemia cell line HL-60", "experiment": "MTS cell viability assay in HL-60", "format": "cell-based", "settings": "HL-60, 0.1-20 μM, 72 hours", "method": "as §1, §2"}, "[4]": {"system": "liver cancer cell line HepG2", "experiment": "MTS cell viability assay in HepG2", "format": "cell-based", "settings": "HepG2, 0.1-20 μM, 72 hours", "method": "as §1, §2"}, "[5]": {"experiment": "Toxicity in JIMT-1 xenograft mice, combination with paclitaxel (body weight, AST, ALT, BUN)", "format": "in vivo, Balb/c nude mice", "settings": "combination study"}, "[6]": {"system": "prostate cancer cell line Du145", "experiment": "MTS cell viability assay in Du145", "format": "cell-based", "settings": "Du145, 0.1-20 μM, 72 hours", "method": "as §1, §2"}, "[7]": {"system": "ovarian cancer cell line SKOV3", "experiment": "MTS cell viability assay in SKOV3", "format": "cell-based", "settings": "SKOV3, 0.1-20 μM, 72 hours", "method": "as §1, §2"}, "[8]": {"system": "colorectal cancer cell line HCT116", "experiment": "MTS cell viability assay in HCT116", "format": "cell-based", "settings": "HCT116, 0.1-20 μM, 72 hours", "method": "as §1, §2"}}}
{"molecule": "COc1c(C(=O)Nc2ccc3c(C)nn(CCC4CCN(C)CC4)c3c2)ccc2c1C=CC(C)(C)O2", "note": "[compound 11k, 5-Methoxy-2,2-dimethyl-N-(3-methyl-1-(2-(1-methylpiperidin-4-yl)ethyl)-1H-indazol-6-yl)-2H-chromene-6-carboxamide]", "values": [{"measurement": "tumor weight", "setting": "[1]; measured after tumor resection", "result": 500, "unit": "mg"}, {"measurement": "tumor volume", "setting": "[1]; measured at 40 days after drug administration", "result": 786.392, "unit": "mm^3"}, {"measurement": "cell viability", "setting": "[2]", "result": "effective in inhibiting cell viability"}, {"measurement": "cell viability", "setting": "[3]", "result": "effective in inhibiting cell viability"}, {"measurement": "cell viability", "setting": "leukemia cell line HL-60", "result": "effective in inhibiting cell viability"}, {"measurement": "cell viability", "setting": "[4]", "result": "effective in inhibiting cell viability"}, {"measurement": "AST and ALT levels, BUN assay", "setting": "[5]; blood of the mouse model", "result": "levels similar to those of the control group"}, {"measurement": "body weight", "setting": "[5]", "result": "remained unchanged"}, {"measurement": "cell viability", "setting": "[6]", "result": "effective in inhibiting cell viability"}, {"measurement": "cell viability", "setting": "[7]", "result": "effective in inhibiting cell viability"}, {"measurement": "cell viability", "setting": "[8]", "result": "effective in inhibiting cell viability"}]}
